For 2 compounds, AV, PV and TOTOX results are on record in US20230065371A1, “PROCESS FOR MANUFACTURING SOLID NEUTRAL AMINO ACID SALTS OF POLYUNSATURATED FATTY ACIDS” (SILICYCLE INC., priority 2020, published 2023).

The data set can be described thus: Oxidative status / stability (PV, AV, Totox; CDR FoodLab Junior analyzer), storage with closed lids at room temperature. It counts as physicochemical. Particulars: for TOTOX: Totox=2*PV+AV. How it is done: The final product in powder form is isolated by evaporating said first and second organic solvents and water from the reaction mixture to recover said basic amino acid salts of PUFAs. Preferably, said evaporation step is carried under reduced pressure between about 0° C.-70° C. depending on the properties of the equipment used. The oxidative status of the obtained final product described herein is quantified by peroxide value (PV), anisidine value (AV) and Totox value. PV is a measure of the level of the primary oxidation products (lipid hydroperoxides) in the product, which is specified in milliequivalents O2 per kg of sample, while the AV is an unspecific measure of saturated and unsaturated carbonyl compounds. Totox is calculated by the equation Totox=2*PV+AV.
The comparison of oxidative status of amino acid salts of omega-3, starting material in ester form and fish oil in free acid form are assessed by measuring the PV and AV, then all the samples are subjected to the same oxidizing condition over a certain period of time, followed by the measuring PV and AV of the samples. The oxidizing conditions are selected from one of them as below: 1) Storage in closed containers at atmospheric condition for 7 months; or 2) Storage in loose closed containers exposed to air at 40° C. for 1 month.
Food Lab Analyzer: Among several techniques known in the art for determining the oxidative levels of a sample. The CDR FoodLab® Junior analyzer is used herein for determining PV and AV. The procedures are as described below:
The solid product 0.5 g was dissolved in 2 ml of MeOH and HCl solution with the ratio of 1:10 (v/v). The mixture was stirred for 5 minutes, followed by the addition of 5 ml of water. The mixture was extracted with 3 ml of hexane containing 100 ppm butylhydroxytoluene (BHT). The organic layer was dried over MgSO4, filtrated and evaporated under reduced pressure at the temperature of 0-70° C. to get the fish oil in free acid form, which is evaluated with the CDR FoodLab® Junior analyzer to get anisidine and peroxide values using the CDR FoodLab® Junior analyzer.
The molar ratio of EPA, NaOH and glycine was 1:1:1. The mixture was stirred at atmospheric condition (i.e. atmospheric pressure and room temperature) for 5 minutes to obtain a suspension solution. 100 mL of acetonitrile was added to further precipitate the glycine salt. […] About 8 g of EPA-gly was stored in a 20 ml of clear vial with a diameter of 27 mm, which was placed with closed lids on the bench at room temperature for the stability examination for 60 days.

Setting [1] is: Table 1, time 60 d, closed lids, room temperature.
Where [2] appears, read: salt as generated, after roughing pump for 1 day.

Take `CC/C=C\C/C=C\C/C=C\C/C=C\C/C=C\C/C=C\CCC(=O)O.NCC(=O)O` [DHA-gly, glycine salt of docosahexaenoic acid]: the AV is >100 A/g (Table 1, time 1 d) and 7.4 A/g under setting [1]. Also, the PV is reported as 9.71 meq O2/Kg (Table 1, time 1 d); 1.92 meq O2/Kg under setting [1]; 9.71 meqO2/kg under setting [2]. The same compound had a TOTOX under setting [1] of 11.24.
For `CC/C=C\C/C=C\C/C=C\C/C=C\C/C=C\CCCC(=O)O.NCC(=O)O` [EPA-gly, glycine salt of eicosapentaenoic acid], the AV is given as 14.6 A/g (Table 1, time 1 d); <0.5 A/g under setting [1]; 14.6 A/g under setting [2]. Further, the PV by setting is: (Table 1, time 1 d) 29.9 meq O2/Kg; under setting [1], 1.19 meq O2/Kg; under setting [2], 29.9 meqO2/kg. This compound had a TOTOX (Table 1, time 1 d) of 74.4 and a TOTOX under setting [1] of 2.38.
